Assay results published in patent US10093713B2, “GIP-GLP-1 dual agonist compounds and methods” (priority 2013, dated 2018).
Read-outs that look alike come from different tables or passages of the source. *1 amine or outer side, *2 acyl side, *3 side chain or, on linkers, in order; H or OH if unused. Where a SMILES comes first, the peptide text is derived from it. Side-chain parts run from the residue outwards. [ ]: non-standard residue; d: D form. The star is where a group is joined. C20 diacid = O=C(O)CCCCCCCCCCCCCCCCCCC(=O)*; C18 diacid = O=C(O)CCCCCCCCCCCCCCCCC(=O)*; γGlu = O=C(O)[C@H](CCC(=O)[*:2])N[*:1]; Dap = NC[C@H](N)C(=O)O; AEEA = NCCOCCOCC(=O)O; Aib = CC(C)(N)C(=O)O

Key:
human GIP R = target: T1, human GIP R (Homo sapiens, UniProt P48546); assay: Human GIP receptor (GIP R) activity assay, cAMP induction (AlphaScreen) in HEK293 cells; assay type: cell-based; details: read-out: hGIP-R cAMP EC50 average value
T1 construct: expressed in transfected cells
T1 sequence (P48546 22-466): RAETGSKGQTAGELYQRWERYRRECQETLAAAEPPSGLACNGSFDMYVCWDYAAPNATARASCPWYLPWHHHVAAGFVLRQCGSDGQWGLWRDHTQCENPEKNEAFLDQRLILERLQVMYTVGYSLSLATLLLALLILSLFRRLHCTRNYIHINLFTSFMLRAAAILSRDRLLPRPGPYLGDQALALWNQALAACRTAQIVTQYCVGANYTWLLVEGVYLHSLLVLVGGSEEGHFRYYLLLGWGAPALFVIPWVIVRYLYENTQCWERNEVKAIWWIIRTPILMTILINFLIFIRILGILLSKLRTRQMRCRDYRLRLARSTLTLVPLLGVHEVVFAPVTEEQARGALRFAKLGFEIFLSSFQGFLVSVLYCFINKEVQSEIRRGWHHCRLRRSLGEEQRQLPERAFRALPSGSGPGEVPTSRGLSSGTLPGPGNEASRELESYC
Procedure, shortened: (§1)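 Stable HEK293 clones expressing human GIP R or GLP-1 R, seeded 1 day before; cells washed in Tyrode's buffer (10 mM HEPES, pH 7.4), stimulated, then lysed. cAMP measured by AlphaScreen bead competition (1 h, room temperature, dark). EC50 = concentration giving half-maximal cAMP elevation, from curves of absolute cAMP (nM) vs log concentration.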

human GLP-1 R = target: T2, human GLP-1 R (Homo sapiens, UniProt P43220); assay: Human GLP-1 receptor (GLP-1 R) activity assay, cAMP induction (AlphaScreen) in HEK293 cells; assay type: cell-based
T2 construct: expressed in transfected cells
T2 sequence (P43220 24-463): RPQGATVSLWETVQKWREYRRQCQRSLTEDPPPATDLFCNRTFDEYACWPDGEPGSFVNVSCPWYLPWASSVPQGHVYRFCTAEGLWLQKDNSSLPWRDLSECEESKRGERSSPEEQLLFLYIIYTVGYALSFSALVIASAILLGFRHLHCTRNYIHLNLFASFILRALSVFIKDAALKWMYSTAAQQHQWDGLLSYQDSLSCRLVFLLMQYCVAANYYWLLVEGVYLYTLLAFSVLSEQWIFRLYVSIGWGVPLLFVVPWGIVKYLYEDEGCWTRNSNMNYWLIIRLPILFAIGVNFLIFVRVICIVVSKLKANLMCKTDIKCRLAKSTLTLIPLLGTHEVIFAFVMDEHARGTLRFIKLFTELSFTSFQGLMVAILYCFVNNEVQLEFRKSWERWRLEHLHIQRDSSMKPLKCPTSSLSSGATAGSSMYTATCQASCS
Procedure, shortened: as §1

[1] = Table 2, HEK293 cells expressing human GIP R
[2] = Table 3, most comprehensive data
[3] = Table 2, HEK293 cells expressing human GLP-1 R, read-out: hGLP1-R cAMP EC50 average value
[4] = Table 3, most comprehensive data, read-out: hGLP-1-R cAMP EC50 average value

Compound	EC50 (human GIP R; [1])	EC50 (human GIP R; [2])	EC50 (human GLP-1 R; [3])	EC50 (human GLP-1 R; [4])
CC[C@H](C)[C@H](NC(=O)[C@H](CO)NC(=O)[C@H](Cc1ccc(O)cc1)NC(=O)[C@H](CC(=O)O)NC(=O)[C@H](CO)NC(=O)[C@@H](NC(=O)[C@H](Cc1ccccc1)NC(=O)[C@@H](NC(=O)CNC(=O)[C@H](CCC(=O)O)NC(=O)C(C)(C)NC(=O)[C@@H](N)Cc1ccc(O)cc1)[C@@H](C)O)[C@@H](C)O)C(=O)N[C@@H](C)C(=O)N[C@@H](CC(C)C)C(=O)N[C@@H](CC(=O)O)C(=O)N[C@@H](CCCCN)C(=O)N[C@@H](CCCCNC(=O)COCCOCCNC(=O)COCCOCCNC(=O)CC[C@H](NC(=O)CCCCCCCCCCCCCCCCC(=O)O)C(=O)O)C(=O)N[C@@H](C)C(=O)N[C@@H](CCC(N)=O)C(=O)N[C@@H](CCCNC(=N)N)C(=O)N[C@@H](C)C(=O)N[C@@H](Cc1ccccc1)C(=O)N[C@H](C(=O)N[C@@H](CC(N)=O)C(=O)N[C@@H](Cc1c[nH]c2ccccc12)C(=O)N[C@@H](CC(C)C)C(=O)N[C@H](C(=O)N[C@@H](C)C(=O)NC(C)(C)C(=O)N[C@@H](CCCCN)C(=O)N1CCC[C@H]1C(=O)N[C@@H](CO)C(=O)N[C@@H](CO)C(=O)NCC(=O)N[C@@H](C)C(=O)N1CCC[C@H]1C(=O)N1CCC[C@H]1C(=O)N1CCC[C@H]1C(=O)N[C@@H](CO)C(N)=O)C(C)C)C(C)C [Compound 14]	6.4 pM	6 pM	8 pM	8 pM
CC[C@H](C)[C@H](NC(=O)[C@H](CO)NC(=O)[C@H](Cc1ccc(O)cc1)NC(=O)[C@H](CC(=O)O)NC(=O)[C@H](CO)NC(=O)[C@@H](NC(=O)[C@H](Cc1ccccc1)NC(=O)[C@@H](NC(=O)CNC(=O)[C@H](CCC(=O)O)NC(=O)C(C)(C)NC(=O)[C@@H](N)Cc1ccc(O)cc1)[C@@H](C)O)[C@@H](C)O)C(=O)N[C@@H](C)C(=O)N[C@@H](CC(C)C)C(=O)N[C@@H](CCC(=O)O)C(=O)N[C@@H](CCCCN)C(=O)N[C@@H](CCCCNC(=O)COCCOCCNC(=O)COCCOCCNC(=O)CC[C@H](NC(=O)CCCCCCCCCCCCCCCCCCC(=O)O)C(=O)O)C(=O)N[C@@H](C)C(=O)N[C@@H](CCC(N)=O)C(=O)N[C@@H](CCCNC(=N)N)C(=O)N[C@@H](C)C(=O)N[C@@H](Cc1ccccc1)C(=O)N[C@H](C(=O)N[C@@H](CCC(=O)O)C(=O)N[C@@H](Cc1c[nH]c2ccccc12)C(=O)N[C@@H](CC(C)C)C(=O)N[C@@H](CC(C)C)C(=O)N[C@@H](C)C(=O)N[C@@H](CCC(N)=O)C(=O)N[C@@H](CCCCN)C(N)=O)C(C)C [Compound 25] (H-Y[Aib]EGTFTSDYSIALEKK([AEEA-AEEA-γGlu-C20 diacid])AQRAFVEWLLAQK-NH2)	9 pM	9 pM	11 pM	–
CC[C@H](C)[C@H](NC(=O)[C@H](CO)NC(=O)[C@H](Cc1ccc(O)cc1)NC(=O)[C@H](CC(=O)O)NC(=O)[C@H](CO)NC(=O)[C@@H](NC(=O)[C@H](Cc1ccccc1)NC(=O)[C@@H](NC(=O)CNC(=O)[C@H](CCC(=O)O)NC(=O)C(C)(C)NC(=O)[C@@H](N)Cc1ccc(O)cc1)[C@@H](C)O)[C@@H](C)O)C(=O)N[C@@H](Cc1ccc(O)cc1)C(=O)N[C@@H](CC(C)C)C(=O)N[C@@H](CC(=O)O)C(=O)N[C@@H](CCCCN)C(=O)N[C@@H](CCCCNC(=O)COCCOCCNC(=O)COCCOCCNC(=O)[C@H](CN)NC(=O)CCCCCCCCCCCCCCCCC(=O)O)C(=O)N[C@@H](C)C(=O)N[C@@H](CCC(N)=O)C(=O)N[C@@H](CCCNC(=N)N)C(=O)N[C@@H](C)C(=O)N[C@@H](Cc1ccccc1)C(=O)N[C@H](C(=O)N[C@@H](CCC(=O)O)C(=O)N[C@@H](Cc1c[nH]c2ccccc12)C(=O)N[C@@H](CC(C)C)C(=O)N[C@@H](CC(C)C)C(=O)N[C@@H](C)C(=O)N[C@@H](CCC(N)=O)C(=O)NCC(=O)N1CCC[C@H]1C(=O)N[C@@H](CO)C(=O)N[C@@H](CO)C(=O)NCC(=O)N[C@@H](C)C(=O)N1CCC[C@H]1C(=O)N1CCC[C@H]1C(=O)N1CCC[C@H]1C(=O)N[C@@H](CO)C(N)=O)C(C)C [Compound 7] (H-Y[Aib]EGTFTSDYSIYLDKK([AEEA-AEEA-Dap-C18 diacid])AQRAFVEWLLAQGPSSGAPPPS-NH2)	11 pM	–	12 pM	–
CC[C@H](C)[C@H](NC(=O)[C@H](CO)NC(=O)[C@H](Cc1ccc(O)cc1)NC(=O)[C@H](CC(=O)O)NC(=O)[C@H](CO)NC(=O)[C@@H](NC(=O)[C@H](Cc1ccccc1)NC(=O)[C@@H](NC(=O)CNC(=O)[C@H](CCC(=O)O)NC(=O)C(C)(C)NC(=O)[C@@H](N)Cc1ccc(O)cc1)[C@@H](C)O)[C@@H](C)O)C(=O)N[C@@H](C)C(=O)N[C@@H](CC(C)C)C(=O)N[C@@H](CC(=O)O)C(=O)N[C@@H](CCCCN)C(=O)N[C@@H](CCCCNC(=O)COCCOCCNC(=O)COCCOCCNC(=O)CC[C@H](NC(=O)CCCCCCCCCCCCCCCCCCC(=O)O)C(=O)O)C(=O)N[C@@H](C)C(=O)N[C@@H](CCC(N)=O)C(=O)N[C@@H](CCCCN)C(=O)N[C@@H](CCC(=O)O)C(=O)N[C@@H](Cc1ccccc1)C(=O)N[C@H](C(=O)N[C@@H](CCC(=O)O)C(=O)N[C@@H](Cc1c[nH]c2ccccc12)C(=O)N[C@@H](CC(C)C)C(=O)N[C@@H](CC(C)C)C(=O)N[C@@H](C)C(=O)N[C@@H](CCC(N)=O)C(=O)NCC(=O)N1CCC[C@H]1C(=O)N[C@@H](CO)C(=O)N[C@@H](CO)C(=O)NCC(=O)N[C@@H](C)C(=O)N1CCC[C@H]1C(=O)N1CCC[C@H]1C(=O)N1CCC[C@H]1C(=O)N[C@@H](CO)C(N)=O)C(C)C [Compound 48] (H-Y[Aib]EGTFTSDYSIALDKK([AEEA-AEEA-γGlu-C20 diacid])AQKEFVEWLLAQGPSSGAPPPS-NH2)	–	6 pM	–	52 pM
CC[C@H](C)[C@H](NC(=O)[C@H](CO)NC(=O)[C@H](Cc1ccc(O)cc1)NC(=O)[C@H](CC(=O)O)NC(=O)[C@H](CO)NC(=O)[C@@H](NC(=O)[C@H](Cc1ccccc1)NC(=O)[C@@H](NC(=O)CNC(=O)[C@H](CCC(=O)O)NC(=O)C(C)(C)NC(=O)[C@@H](N)Cc1ccc(O)cc1)[C@@H](C)O)[C@@H](C)O)C(=O)N[C@@H](C)C(=O)N[C@@H](CC(C)C)C(=O)N[C@@H](CC(=O)O)C(=O)N[C@@H](CCC(=O)O)C(=O)N[C@@H](CCCCNC(=O)COCCOCCNC(=O)COCCOCCNC(=O)CC[C@H](NC(=O)CCCCCCCCCCCCCCCCCCC(=O)O)C(=O)O)C(=O)N[C@@H](C)C(=O)N[C@@H](CCC(N)=O)C(=O)N[C@@H](CCCNC(=N)N)C(=O)N[C@@H](C)C(=O)N[C@@H](Cc1ccccc1)C(=O)N[C@H](C(=O)N[C@@H](CCC(=O)O)C(=O)N[C@@H](Cc1c[nH]c2ccccc12)C(=O)N[C@@H](CC(C)C)C(=O)N[C@@H](CC(C)C)C(=O)N[C@@H](C)C(=O)N[C@@H](C)C(=O)NCC(=O)N1CCC[C@H]1C(=O)N[C@@H](CO)C(=O)N[C@@H](CO)C(=O)NCC(=O)N[C@@H](C)C(=O)N1CCC[C@H]1C(=O)N1CCC[C@H]1C(=O)N1CCC[C@H]1C(=O)N[C@@H](CO)C(N)=O)C(C)C [Compound 44] (H-Y[Aib]EGTFTSDYSIALDEK([AEEA-AEEA-γGlu-C20 diacid])AQRAFVEWLLAAGPSSGAPPPS-NH2)	–	7 pM	–	15 pM
CC[C@H](C)[C@H](NC(=O)[C@H](CO)NC(=O)[C@H](Cc1ccc(O)cc1)NC(=O)[C@H](CC(=O)O)NC(=O)[C@H](CO)NC(=O)[C@@H](NC(=O)[C@H](Cc1ccccc1)NC(=O)[C@@H](NC(=O)CNC(=O)[C@H](CCC(=O)O)NC(=O)C(C)(C)NC(=O)[C@@H](N)Cc1ccc(O)cc1)[C@@H](C)O)[C@@H](C)O)C(=O)N[C@@H](C)C(=O)N[C@@H](CC(C)C)C(=O)N[C@@H](CC(=O)O)C(=O)N[C@@H](CCCCN)C(=O)N[C@@H](CCCCNC(=O)COCCOCCNC(=O)COCCOCCNC(=O)CC[C@H](NC(=O)CCCCCCCCCCCCCCCCCCC(=O)O)C(=O)O)C(=O)N[C@@H](C)C(=O)N[C@@H](CCC(N)=O)C(=O)N[C@@H](CCCNC(=N)N)C(=O)N[C@@H](CCC(=O)O)C(=O)N[C@@H](Cc1ccccc1)C(=O)N[C@H](C(=O)N[C@@H](CCC(=O)O)C(=O)N[C@@H](Cc1c[nH]c2ccccc12)C(=O)N[C@@H](CC(C)C)C(=O)N[C@@H](CC(C)C)C(=O)N[C@@H](C)C(=O)N[C@@H](CCC(N)=O)C(=O)NCC(=O)N1CCC[C@H]1C(=O)N[C@@H](CO)C(=O)N[C@@H](CO)C(=O)NCC(=O)N[C@@H](C)C(=O)N1CCC[C@H]1C(=O)N1CCC[C@H]1C(=O)N1CCC[C@H]1C(=O)N[C@@H](CO)C(N)=O)C(C)C [Compound 47] (H-Y[Aib]EGTFTSDYSIALDKK([AEEA-AEEA-γGlu-C20 diacid])AQREFVEWLLAQGPSSGAPPPS-NH2)	–	5 pM	–	16 pM
